The values that follow come from ChEMBL document CHEMBL1143687, “Synthesis of analogues of a flexible thiopyrylium photosensitizer for purging blood-borne pathogens and binding mode and affinity studies of their complexes with DNA” (Bioorg Med Chem, 2007).

The test system of data set [1] is DNA. The data set can be described thus: Binding affinity to calf thymus DNA by isothermal titration calorimetry. The settings on record: Bos taurus. Format: nucleic-acid assay. (Isothermal titration calorimetry measures the heat released or taken up as one component is titrated into another.)
Data set [2] is described as follows: Binding affinity to M13mp19 DNA by spectrophotometric titration method.
For data set [3], the system named is Escherichia coli. As to the kind of experiment: Binding affinity to pUC19 DNA assessed as drug concentration to induce plasmid re-supercoiling by topoisomerase 1 DNA unwinding assay.
The subject of data set [4] is DNA. As to the kind of experiment: Binding affinity to calf thymus DNA by spectrophotometric titration method. In kind it is nucleic-acid assay. The settings on record: Bos taurus.
Data set [5] is described as follows: Partition coefficient, log P by shake flask method. The note with it: octanol/water. Format: physicochemical.

With `CCCc1cc(-c2ccc(N(C)C)cc2)cc(-c2ccc(N(C)C)cc2)[s+]1`, the Kb was 2.4 10^5/M in data set [1], 3.47 10^4/M in data set [2], 45 10^6/M in data set [3] and 5 10^4/M in data set [4]. For the same compound, the logP in data set [5] worked out at 0.82.
For the compound `Cc1cc(-c2ccc(N(C)C)cc2)cc(-c2ccc(N(C)C)cc2)[s+]1`, the Kb was 1.7 10^5/M in data set [1], 6.1 10^4/M in data set [2], 66 10^6/M in data set [3] and 5.2 10^4/M in data set [4]. Also, in data set [5], the logP is 0.6.
Regarding `CC(C)c1cc(-c2ccc(N(C)C)cc2)cc(-c2ccc(N(C)C)cc2)[s+]1`, the Kb in data set [2] was 1.17 10^4/M. This compound had a logP in data set [5] of 0.23.
Take `CCc1cc(-c2ccc(N(C)C)cc2)cc(-c2ccc(N(C)C)cc2)[s+]1`: the Kb in data set [2] is 1.8 10^4/M. The same compound had a logP in data set [5] of 0.13.
For the compound `CCCCc1cc(-c2ccc(N(C)C)cc2)cc(-c2ccc(N(C)C)cc2)[s+]1`, in data set [2], the Kb was 7.58 10^4/M. Also, in data set [5], the logP was 1.63.
On to `CN(C)c1ccc(-c2cc(-c3ccc(N(C)C)cc3)[s+]c(C(C)(C)C)c2)cc1`, for which the Kb was 4.2 10^5/M in data set [1], 0.91 10^4/M in data set [2], 23 10^6/M in data set [3] and 10.1 10^4/M in data set [4]. The logP in data set [5] is 1.51.
As for `CN(C)c1ccc(-c2cc(-c3ccc(N(C)C)cc3)[se+]c(C(C)(C)C)c2)cc1`, the Kb in data set [1] was 3.9 10^5/M; in data set [2], 2.5 10^4/M; in data set [3] it was 22 10^6/M; in data set [4], 8.7 10^4/M. The same compound yielded a logP in data set [5] of 1.57.

One may read the logP as the decadic logarithm of the partition coefficient of the neutral form, usually between octanol and water. The low end stands for lower lipophilicity, the high end for higher lipophilicity.
